Toxic doses and inconclusive results are not listed.
Test system: CD2F1 mice, L1210 leukemia ip, survival T/C
Assay: NCI In Vivo Anticancer Drug Screen. Data for tumor model L1210 Leukemia (intraperitoneal) in CD2F1 (CDF1) mice
Conditions: higher = longer survival
In short: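 Antitumor effect is scored in animals hosting a serially transplanted tumor. Values compare compound-dosed animals against vehicle-only controls as a simple quotient.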

[1] = endpoint: mean survival time, dose: 100.0 mg/kg/injection, schedule: Q01DX009 (ip), vehicle: saline with Tween-80
[2] = endpoint: mean survival time, dose: 200.0 mg/kg/injection, schedule: Q01DX009 (ip), vehicle: saline with Tween-80
[3] = endpoint: mean survival time, dose: 400.0 mg/kg/injection, schedule: Q01DX009 (ip), vehicle: saline with Tween-80
[4] = endpoint: mean survival time, dose: 100.0 mg/kg/injection, schedule: Q01DX001 (ip), vehicle: saline with Tween-80
[5] = endpoint: mean survival time, dose: 200.0 mg/kg/injection, schedule: Q01DX001 (ip), vehicle: saline with Tween-80
[6] = endpoint: mean survival time, dose: 400.0 mg/kg/injection, schedule: Q01DX001 (ip), vehicle: saline with Tween-80
[7] = endpoint: mean survival time, dose: 100.0 mg/kg/injection, schedule: Q04DX003 (ip), vehicle: saline
[8] = endpoint: mean survival time, dose: 50.0 mg/kg/injection, schedule: Q01DX009 (ip), vehicle: saline with Tween-80
[9] = endpoint: mean survival time, dose: 100.0 mg/kg/injection, schedule: Q04DX003 (ip), vehicle: saline with Tween-80
[10] = endpoint: mean survival time, dose: 200.0 mg/kg/injection, schedule: Q04DX003 (ip), vehicle: saline with Tween-80
[11] = endpoint: mean survival time, dose: 400.0 mg/kg/injection, schedule: Q04DX003 (ip), vehicle: saline with Tween-80
[12] = endpoint: mean survival time, dose: 12.5 mg/kg/injection, schedule: Q01DX009 (ip), vehicle: saline with Tween-80
[13] = endpoint: mean survival time, dose: 25.0 mg/kg/injection, schedule: Q01DX009 (ip), vehicle: saline with Tween-80
[14] = endpoint: mean survival time, dose: 12.5 mg/kg/injection, schedule: Q01DX005 (ip), vehicle: water
[15] = endpoint: mean survival time, dose: 25.0 mg/kg/injection, schedule: Q01DX005 (ip), vehicle: water
[16] = endpoint: mean survival time, dose: 50.0 mg/kg/injection, schedule: Q01DX005 (ip), vehicle: water
[17] = endpoint: mean survival time, dose: 100.0 mg/kg/injection, schedule: Q01DX005 (ip), vehicle: water

## CCN(C(=O)Nc1cc([N+](=O)[O-])ccc1C)c1cc(C)ccc1OC
[1]
  T/C: 88 % of control
[2]
  T/C: 94 % of control
[3]
  T/C: 94 % of control

## CC(c1ccccc1)n1cncc1C(=O)NN(C)C (stereo not drawn)
[4]
  T/C: 96 % of control
[5]
  T/C: 93 % of control
[6]
  T/C: 91 % of control

## OC(c1ccccc1)(c1ccc2ccccc2n1)c1cccs1 (stereo not drawn)
[7]
  T/C: 102 % of control
endpoint: mean survival time, dose: 200.0 mg/kg/injection, schedule: Q04DX003 (ip), vehicle: saline
  T/C: 90 % of control
endpoint: mean survival time, dose: 400.0 mg/kg/injection, schedule: Q04DX003 (ip), vehicle: saline
  T/C: 90 % of control

## N#Cc1cccnc1Cl
endpoint: median survival time, dose: 50.0 mg/kg/injection, schedule: Q04DX002 (ip), vehicle: saline with Tween-80
  T/C: 100 % of control
endpoint: median survival time, dose: 100.0 mg/kg/injection, schedule: Q04DX002 (ip), vehicle: saline with Tween-80
  T/C: 100 % of control
endpoint: median survival time, dose: 200.0 mg/kg/injection, schedule: Q04DX002 (ip), vehicle: saline with Tween-80
  T/C: 111 % of control

## NC(=O)c1c(Br)n(C2OC(CO)C(O)C2O)c2ncnc(N)c12 (stereo not drawn)
[8]
  T/C: 105 % of control

## CC(=O)Nc1cc2ccccc2c2ccc3ccccc3c12
[4]
  T/C: 89 % of control
[1]
  T/C: 96 % of control
[5]
  T/C: 93 % of control
[2]
  T/C: 95 % of control
[6]
  T/C: 102 % of control
[3]
  T/C: 96 % of control

## CC(=O)C1CCC2C3CC=C4CC(SC(=N)N)CCC4(C)C3CCC12C (stereo not drawn)
endpoint: mean survival time, dose: 75.0 mg/kg/injection, schedule: Q01DX001 (ip), vehicle: steriod suspending solution
  T/C: 102 % of control
endpoint: mean survival time, dose: 150.0 mg/kg/injection, schedule: Q01DX001 (ip), vehicle: steriod suspending solution
  T/C: 104 % of control
endpoint: mean survival time, dose: 300.0 mg/kg/injection, schedule: Q01DX001 (ip), vehicle: steriod suspending solution
  T/C: 91 % of control

## CN(C)C(=O)N(CCCl)N=O
endpoint: mean survival time, dose: 16.0 mg/kg/injection, schedule: Q01DX001 (ip), vehicle: other
  T/C: 176 % of control
endpoint: mean survival time, dose: 20.0 mg/kg/injection, schedule: Q01DX001 (ip), vehicle: other
  T/C: 306 % of control
endpoint: mean survival time, dose: 32.0 mg/kg/injection, schedule: Q01DX001 (ip), vehicle: other
  T/C: 570 % of control
endpoint: mean survival time, dose: 40.0 mg/kg/injection, schedule: Q01DX001 (ip), vehicle: other
  T/C: 318 % of control

## Cc1c2c(cc3c1CCC1(C)C(C(C)CCC(C)C(C)C)CC(O)C31O)CCCC2 (stereo not drawn)
endpoint: mean survival time, dose: 50.0 mg/kg/injection, schedule: Q01DX001 (ip), vehicle: saline with Tween-80
  T/C: 92 % of control
[4]
  T/C: 94 % of control
[9]
  T/C: 96 % of control
[5]
  T/C: 92 % of control
[10]
  T/C: 98 % of control
[11]
  T/C: 98 % of control

## COc1cc(C(=O)C[n+]2ccccc2)ccc1O
[8]
  T/C: 103 % of control
[1]
  T/C: 87 % of control
[2]
  T/C: 96 % of control

## CNC(=O)c1ccc[n+](CC(=O)NCc2ccccc2)c1
[7]
  T/C: 107 % of control

## CCC1(c2ccccc2)C(=O)N(CBr)C(=O)N(CBr)C1=O
[12]
  T/C: 98 % of control
[13]
  T/C: 93 % of control
[8]
  T/C: 96 % of control

## c1ccc(-c2nc3c(c(-c4ccccc4)n2)CCO3)cc1
[1]
  T/C: 95 % of control
[9]
  T/C: 98 % of control
[2]
  T/C: 93 % of control
[10]
  T/C: 100 % of control
[3]
  T/C: 95 % of control
[11]
  T/C: 90 % of control

## Cc1cc(O)c(C(C)C)cc1N(C)C (tested in a mixture with another compound)
endpoint: mean survival time, dose: 0.13 mg/kg/injection, schedule: Q01DX009 (ip), vehicle: saline
  T/C: 100 % of control
endpoint: mean survival time, dose: 0.25 mg/kg/injection, schedule: Q01DX009 (ip), vehicle: saline
  T/C: 106 % of control
endpoint: mean survival time, dose: 0.25 mg/kg/injection, schedule: Q04DX003 (ip), vehicle: saline
  T/C: 110 % of control
endpoint: mean survival time, dose: 0.5 mg/kg/injection, schedule: Q01DX001 (ip), vehicle: saline
  T/C: 97 % of control
endpoint: mean survival time, dose: 0.5 mg/kg/injection, schedule: Q01DX009 (ip), vehicle: saline
  T/C: 93 % of control
endpoint: mean survival time, dose: 0.5 mg/kg/injection, schedule: Q04DX003 (ip), vehicle: saline
  T/C: 87 % of control
endpoint: mean survival time, dose: 1.0 mg/kg/injection, schedule: Q01DX001 (ip), vehicle: saline
  T/C: 97 % of control

## CCCC(=O)OC1C2OP(=O)(O)OCC2OC1n1c(=S)[nH]c2c(N)ncnc21 (stereo not drawn)
endpoint: mean survival time, dose: 6.25 mg/kg/injection, schedule: Q01DX005 (ip), vehicle: water
  T/C: 93 % of control
[14]
  T/C: 97 % of control
[15]
  T/C: 101 % of control
[16]
  T/C: 93 % of control
[17]
  T/C: 101 % of control

## CCOc1cccc(Cc2cn(Cc3ccc(NC(=O)c4cccc(S(=O)(=O)F)c4)cc3)c(=O)[nH]c2=O)c1
endpoint: mean survival time, dose: 75.0 mg/kg/injection, schedule: Q01DX001 (ip), vehicle: saline with Tween-80
  T/C: 94 % of control
endpoint: mean survival time, dose: 150.0 mg/kg/injection, schedule: Q01DX001 (ip), vehicle: saline with Tween-80
  T/C: 89 % of control
endpoint: mean survival time, dose: 300.0 mg/kg/injection, schedule: Q01DX001 (ip), vehicle: saline with Tween-80
  T/C: 94 % of control

## CCC(=O)c1ccc(OCOc2ccc(C(=O)CC)cc2OC)c(OC)c1
endpoint: mean survival time, dose: 100.0 mg/kg/injection, schedule: Q01DX001 (ip), vehicle: saline
  T/C: 94 % of control
endpoint: mean survival time, dose: 200.0 mg/kg/injection, schedule: Q01DX001 (ip), vehicle: saline
  T/C: 96 % of control
endpoint: mean survival time, dose: 400.0 mg/kg/injection, schedule: Q01DX001 (ip), vehicle: saline
  T/C: 91 % of control

## COC(CO)(OC)c1ccccc1
[9]
  T/C: 102 % of control
[10]
  T/C: 106 % of control
[11]
  T/C: 93 % of control

## O=C(CC(Cl)c1ccccc1)c1ccccc1 (stereo not drawn)
[1]
  T/C: 91 % of control
[9]
  T/C: 94 % of control
[2]
  T/C: 96 % of control
[10]
  T/C: 98 % of control
[3]
  T/C: 91 % of control
[11]
  T/C: 90 % of control

## Cc1cc(NC(=O)Nc2ccccc2C)no1
[4]
  T/C: 106 % of control
[5]
  T/C: 100 % of control
[6]
  T/C: 103 % of control

## COc1ccc(OCCCn2cc(-c3ccc(Cl)c(Cl)c3)c(N)nc2=O)cc1
[9]
  T/C: 97 % of control
[10]
  T/C: 92 % of control
[11]
  T/C: 94 % of control

## Nc1ncnc2c1nnn2Cc1ccco1
endpoint: mean survival time, dose: 12.5 mg/kg/injection, schedule: Q01DX005 (ip), vehicle: other
  T/C: 96 % of control
endpoint: mean survival time, dose: 25.0 mg/kg/injection, schedule: Q01DX005 (ip), vehicle: other
  T/C: 89 % of control
endpoint: mean survival time, dose: 50.0 mg/kg/injection, schedule: Q01DX005 (ip), vehicle: other
  T/C: 89 % of control
endpoint: mean survival time, dose: 100.0 mg/kg/injection, schedule: Q01DX005 (ip), vehicle: other
  T/C: 93 % of control
endpoint: mean survival time, dose: 200.0 mg/kg/injection, schedule: Q01DX005 (ip), vehicle: other
  T/C: 96 % of control

## O=[N+]([O-])O.[Ga]
endpoint: mean survival time, dose: 50.0 mg/kg/injection, schedule: Q01DX Z (ip), vehicle: saline
  T/C: 119 % of control

## CCCCS.[Hg]
endpoint: mean survival time, dose: 6.25 mg/kg/injection, schedule: Q01DX009 (ip), vehicle: saline with Tween-80
  T/C: 95 % of control
[12]
  T/C: 96 % of control
[13]
  T/C: 95 % of control

## c1ccc2[s+]cccc2c1
[9]
  T/C: 95 % of control

## Nc1ccn(C2OC3COC2C3O)c(=O)n1 (stereo not drawn)
[14]
  T/C: 101 % of control
[15]
  T/C: 101 % of control
[16]
  T/C: 102 % of control
[17]
  T/C: 101 % of control
endpoint: mean survival time, dose: 200.0 mg/kg/injection, schedule: Q01DX005 (ip), vehicle: water
  T/C: 107 % of control

## O=C1NC23C(=O)N(C4CCCCC4)CC2(Cc2ccccc2)c2ccccc2N3C1=O (stereo not drawn)
[4]
  T/C: 86 % of control
[5]
  T/C: 92 % of control
[6]
  T/C: 86 % of control

## Nc1ccn(C2CC3OCC3O2)c(=O)n1 (stereo not drawn)
endpoint: median survival time, dose: 12.5 mg/kg/injection, schedule: Q01DX005 (ip), vehicle: saline
  T/C: 97 % of control
endpoint: median survival time, dose: 25.0 mg/kg/injection, schedule: Q01DX005 (ip), vehicle: saline
  T/C: 105 % of control
endpoint: median survival time, dose: 50.0 mg/kg/injection, schedule: Q01DX005 (ip), vehicle: saline
  T/C: 103 % of control
endpoint: median survival time, dose: 100.0 mg/kg/injection, schedule: Q01DX005 (ip), vehicle: saline
  T/C: 110 % of control
endpoint: median survival time, dose: 200.0 mg/kg/injection, schedule: Q01DX005 (ip), vehicle: saline
  T/C: 104 % of control

## O=NC1C(=O)C2CC1CC2C(=O)OC(=O)C1CC2CC1C(=O)C2N=O (stereo not drawn)
endpoint: mean survival time, dose: 75.0 mg/kg/injection, schedule: Q01DX001 (ip), vehicle: other
  T/C: 108 % of control
endpoint: mean survival time, dose: 150.0 mg/kg/injection, schedule: Q01DX001 (ip), vehicle: other
  T/C: 108 % of control

From PubChem BioAssay AID256 (DTP/NCI, 2004)
